# Reference: patent US20230346827A1 (priority 2020, published 2023)
# How the values were obtained:
# human primary cells = test: BioMAP Diversity PLUS panel (12 human primary cell-based systems)
# Description: Four concentrations of LMW-DS (ILB®, Tikomed AB, Viken, Sweden, WO 2016/076780; 150 nM, 440 nM, 1.3 µM, 4 µM) were investigated in the BioMAP® Diversity PLUS panel by Eurofins.
# Human primary cells in BioMAP systems are used at early passage (passage 4 or earlier) to minimize adaptation to cell culture conditions and preserve physiological signaling responses. All cells are from a pool of multiple donors (n = 2 - 6), commercially purchased and handled according to the recommendations of the manufacturers. Human blood derived CD14+ monocytes are differentiated into macrophages in vitro before being added to the Mphg system. Abbreviations are used as follows: Human umbilical vein endothelial cells (HUVEC), Peripheral blood mononuclear cells (PBMC), Human neonatal dermal fibroblasts (HDFn), B cell receptor (BCR), T cell receptor (TCR) and Toll-like receptor (TLR).
# (§1) Cell types and stimuli used in each system are as follows: 3C system [HUVEC + (IL-1β, TNFα and IFNy)], 4H system [HUVEC + (IL-4 and histamine)], LPS system [PBMC and HUVEC + LPS (TLR4 ligand)], SAg system [PBMC and HUVEC + TCR ligands], BT system [CD19+ B cells and PBMC + (α-IgM and TCR ligands)], BF4T system [bronchial epithelial cells and HDFn + (TNFα and IL-4)], BE3C system [bronchial epithelial cells + (IL-1β, TNFα and IFNy)], CASM3C system [coronary artery smooth muscle cells + (IL-1 β, TNFα and IFNy)], HDF3CGF system [HDFn + (IL-1β, TNFα, IFNy, EGF, bFGF and PDGF-BB)], KF3CT system [keratinocytes and HDFn + (IL-1β, TNFα, IFNy and TGFβ)], MyoF system [differentiated lung myofibroblasts + (TNFα and TGFβ)] and Mphg system [HUVEC and M1 macrophages + Zymosan (TLR2 ligand)].
# Systems are derived from either single cell types or co-culture systems. Adherent cell types are cultured in 96 or 384-well plates until confluence, followed by the addition of PBMC (SAg and LPS systems). The BT system consists of CD19+ B cells co-cultured with PBMC and stimulated with a BCR activator and low levels of TCR stimulation. […] Each plate contains drug controls (e.g., legacy control test agent colchicine at 1.1 µM), negative controls (e.g., non-stimulated conditions) and vehicle controls (e.g., 0.1% DMSO) appropriate for each system. Direct ELISA is used to measure biomarker levels of cell-associated and cell membrane targets. Soluble factors from supernatants are quantified using either HTRF® detection, bead-based multiplex immunoassay or capture ELISA. Overt adverse effects of test agents on cell proliferation and viability (cytotoxicity) are detected by sulforhodamine B (SRB) staining, for adherent cells, and alamarBlue® reduction for cells in suspension. For proliferation assays, individual cell types are cultured at subconfluence and measured at time points optimized for each system (48-hrs: 3C and CASM3C systems; 72-hrs: BT and HDF3CGF systems; 96-hrs: SAg system). Cytotoxicity for adherent cells is measured by SRB (24-hrs: 3C, 4H, LPS, SAg, BF4T, BE3C, CASM3C, HDF3CGF, KF3CT, and Mphg systems; 48-hrs: MyoF system), and by alamarBlue staining for cells in suspension (24-hrs: SAg system; 42-hrs: BT system) at the time points indicated.
# Biomarker measurements in a test agent-treated sample are divided by the average of control samples (at least 6 vehicle controls from the same plate) to generate a ratio that is then log10 transformed. Significance prediction envelopes are calculated using historical vehicle control data at a 95% confidence interval.
# Biomarker activities are annotated when 2 or more consecutive concentrations change in the same direction relative to vehicle controls, are outside of the significance envelope and have at least one concentration with an effect size > 20% (|log10 ratio| > 0.1). Biomarker key activities are described as modulated if these activities increase in some systems, but decrease in others. […]
# [1] = system: differentiated lung myofibroblasts + (TNFα and TGFβ); test: BioMAP MyoF system; assay type: cell-based, human; details: annotated relative to vehicle controls
# Description: as §1
# Systems are derived from either single cell types or co-culture systems. Adherent cell types are cultured in 96 or 384-well plates until confluence, followed by the addition of PBMC (SAg and LPS systems). […] Soluble factors from supernatants are quantified using either HTRF® detection, bead-based multiplex immunoassay or capture ELISA. Overt adverse effects of test agents on cell proliferation and viability (cytotoxicity) are detected by sulforhodamine B (SRB) staining, for adherent cells, and alamarBlue® reduction for cells in suspension. […]
# blood coagulation (APTT) = test: Activated partial thromboplastin time (APTT) in blood of ALS patients after s.c. LMW-DS 1 mg/kg (Example 5); assay type: in vivo, human
# Description: This was a single-centre, open single-arm study where the safety, tolerability and efficacy of subcutaneous (s.c.) administered LMW-DS was evaluated in patients with ALS. There were 10 planned visits to the clinic: 1 screening visit divided in 2 parts (Visit 1a and Visit 1b), 5 IMP administration visits (Visit 2 to Visit 6) and 3 follow-up visits (Visit 7 to Visit 9). Each individual patient’s study participation was planned to be approximately 4 months, including the screening and follow-up visits.
# The active pharmaceutical ingredient of the IMP was a low molecular weight dextran sulfate (LMW-DS), (ILB®, Tikomed AB, Viken, Sweden, WO 2016/076780). LMW-DS was prepared as a solution for s.c. injection and consisted of 20 mg/mL LMW-DS and 9 mg/mL NaCl. Each glass vial contained 10 mL. The dose administered depended on the patient’s body weight at Visit 2, prior to the first LMW-DS administration. LMW-DS was injected s.c. on alternating sides of the abdomen, thigh or the buttock (in that order of priority). Five injections of 1 mg/kg, with 1 week dosing interval, were administered. Changes in activated partial thromboplastin time (APTT) were recorded from blood samples taken at each visit.
# [2] = molecular target: T1, SARS-CoV-2 spike protein - ACE2 interaction (Severe acute respiratory syndrome coronavirus 2, UniProt P0DTC2); test: RayBio COVID-19 Spike-ACE2 binding assay kit (ELISA); design: species or system SARS-CoV-2 / human; details: LMW-DS 3.0 to 600 µg/ml
# T1 construct: purchased RayBio CoV-SACE2
# Description: The RayBio® COVID-19 Spike-ACE2 binding assay kit (cat. number CoV-SACE2) was used as per the manufacturer’s instructions (ver 1.6) to assess the ability of LMW-DS to disrupt the interaction between SARS-CoV-2 spike protein and ACE2.
# LMW-DS (ILB®, Tikomed AB, Viken, Sweden, WO 2016/076780) in saline was added in concentrations ranging from […] to 600 µg/ml.
substance,measurement,setting,value
sodium salt of dextran sulfate [LMW-DS],annotated readouts,"human primary cells; 150 nM, 440 nM, 1.3 µM, 4 µM",25
same,cytotoxicity for human primary cells,human primary cells; at the concentrations tested (150 nM - 4 µM),not cytotoxic
same,thrombomodulin (TM),human primary cells; hemostasis-related activity,increased
same,CD69,human primary cells; immunomodulatory activity,increased
same,M-CSF,human primary cells; immunomodulatory activity,decreased
same,secreted immunoglobulin G (sIgG),human primary cells; immunomodulatory activity,decreased
same,soluble IL-17A (sIL-17A),human primary cells; immunomodulatory activity,increased
same,Eotaxin 3 (Eot3),human primary cells; inflammation-related activity,increased
same,I-TAC,human primary cells; inflammation-related activity,decreased
same,IL-8,human primary cells; inflammation-related activity,increased
same,IP-10,human primary cells; inflammation-related activity,decreased
same,MCP-1,human primary cells; inflammation-related activity,decreased
same,MIG,human primary cells; inflammation-related activity,decreased
same,VCAM-1,human primary cells; inflammation-related activity,decreased
same,sTNFα,human primary cells; inflammation-related activity,decreased
same,EGFR,human primary cells; tissue remodeling activity,increased
same,MMP-1,human primary cells; tissue remodeling activity,increased
same,PAI-1,human primary cells; tissue remodeling activity,increased
same,uPAR,human primary cells; tissue remodeling activity,increased
same,antiproliferative effect on human primary endothelial cells,human primary cells; top concentration only (4 µM),modestly and selectively antiproliferative
same,Increased biomarker activity,[1],IL-8
same,APTT relative change from baseline,blood coagulation (APTT); 2 hours post-dosing,+33.5%
same,APTT relative change from baseline,blood coagulation (APTT); 2.5 hours post-dosing,+26.5%
same,time at which APTT values returned to pre-dose levels,blood coagulation (APTT); post dosing,6 h
same,SARS-CoV-2 spike protein - ACE2 interaction,[2],concentration dependent disruption
